Among the data in article doi:10.1101/416081v1 (biorxiv, 2018) are Km values, retold here.

This assay concerns the target T1, reTAPON1-LIKE (Trichoderma atroviride, UniProt A0A4D6GQM1).
T1 construct: 30-aa signal peptide removed (438-residue ORF, 1317 bp), N-terminal GST tag kept (pGEX-4T-1), E. coli Origami B (DE3), about 71 kDa fusion
The format is biochemical. To be noted: 25 °C.

For `CCOP(=O)(OCC)Oc1nc(Cl)c(Cl)cc1Cl` [Chlorpyrifos-oxon], the Km amounted to 320 ± 50 µM.

As to `COP(=O)(OC)OC=C(Cl)Cl` [Dichlorvos, 2,2-dichlorovinyl dimethyl phosphate], the Michaelis constant (Km) came to 230 ± 20 µM.

As for `CCOC(=O)CC(SP(=O)(OC)OC)C(=O)OCC` (centres unmarked) [Malaoxon], the Km was 720 ± 10 µM.

In the case of `COC(=O)C=C(C)OP(=O)(OC)OC` [Mevinphos], the Km was 440 ± 40 µM.

Consider `CNC(=O)CSP(=O)(OC)OC` [Omethoate], for which the Km worked out at 790 ± 120 µM.
